Laboratory results from patent publication US20250179061A1 (SIRONAX LTD., priority 2022, published 2025).

These molecules were tested on HT-29 cells (assay: HT-29 necroptosis cell viability assay (TNF-α/SMAC mimetic/zVAD-FMK, CellTiter-Glo)). Details: Homo sapiens, HT-29, HT-29 necroptosis cell viability, IC50 class symbols; read-out: Activity.
Type: cell-based
Summary of the method: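 HT-29 cells (~5,000/well, overnight) in FBS-free McCoy's 5A with TNF-α 10 ng/ml, SMAC mimetic 6 μM and zVAD-FMK 10 μM plus 10-point 1:3 compound titration, 20 h at 37°C. ATP measured by CellTiter-Glo luminescence; IC50 as geometric mean of duplicates.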

SMILES | IC50
C[C@@H]1[C@H](C#N)CN1c1nccc(Oc2ccc(-n3ncn(Cc4c(F)cccc4F)c3=O)cc2F)c1F [Example 389, (2R,3R)-1-(4-(4-(4-(2,6-difluorobenzyl)-5-oxo-4,5-dihydro-1H-1,2,4-triazol-1-yl)-2-fluorophenoxy)-3-fluoropyridin-2-yl)-2-methylazetidine-3-carbonitrile] | < 0.1 µM
Cc1nc(N2CC(C)(N)C2)sc1Oc1ccc(-n2ncn(Cc3c(F)cccc3F)c2=O)cc1 [Example 390, 2-(4-((2-(3-amino-3-methylazetidin-1-yl)-4-methylthiazol-5-yl)oxy)phenyl)-4-(2,6-difluorobenzyl)-2,4-dihydro-3H-1,2,4-triazol-3-one] | < 0.1 µM
N#CC12CC(Nc3nccc(Oc4ccc(-n5ncn(Cc6c(F)cccc6F)c5=O)cc4Cl)c3F)(C1)C2 [Example 391, 3-((4-(2-chloro-4-(4-(2,6-difluorobenzyl)-5-oxo-4,5-dihydro-1H-1,2,4-triazol-1-yl)phenoxy)-3-fluoropyridin-2-yl)amino)bicyclo[1.1.1]pentane-1-carbonitrile] | 0.1 to 1 µM
N#CC12CC(Nc3cc(Oc4ccc(-n5ncn(Cc6c(F)cccc6F)c5=O)cc4Cl)c(F)cn3)(C1)C2 [Example 392, 3-((4-(2-chloro-4-(4-(2,6-difluorobenzyl)-5-oxo-4,5-dihydro-1H-1,2,4-triazol-1-yl)phenoxy)-5-fluoropyridin-2-yl)amino)bicyclo[1.1.1]pentane-1-carbonitrile] | < 0.1 µM
CC1(C#N)CCN(c2cc(Oc3ccc(-n4ncn(Cc5c(F)cccc5F)c4=O)cc3F)c(Cl)cn2)C1 (stereo not shown) [Example 393, 1-(5-chloro-4-(4-(4-(2,6-difluorobenzyl)-5-oxo-4,5-dihydro-1H-1,2,4-triazol-1-yl)-2-fluorophenoxy)pyridin-2-yl)-3-methylpyrrolidine-3-carbonitrile] | < 0.1 µM
CC1(C#N)CCN(c2cc(Oc3ccc(-n4ncn(Cc5c(F)cccc5F)c4=O)cc3F)c(F)cn2)C1 (stereo not shown) [Example 394, 1-(4-(4-(4-(2,6-difluorobenzyl)-5-oxo-4,5-dihydro-1H-1,2,4-triazol-1-yl)-2-fluorophenoxy)-5-fluoropyridin-2-yl)-3-methylpyrrolidine-3-carbonitrile] | < 0.1 µM
N#Cc1cnc(Cl)cc1Oc1ccc(-n2ncn(Cc3c(F)cccc3F)c2=O)cc1F [Example 395, 6-chloro-4-(4-(4-(2,6-difluorobenzyl)-5-oxo-4,5-dihydro-1H-1,2,4-triazol-1-yl)-2-fluorophenoxy)nicotinonitrile] | 1 to 10 µM
CC1(N)CN(c2cc(Oc3ccc(-n4ncn(Cc5c(F)cccc5F)c4=O)cc3F)c(C#N)cn2)C1 [Example 396, 6-(3-amino-3-methylazetidin-1-yl)-4-(4-(4-(2,6-difluorobenzyl)-5-oxo-4,5-dihydro-1H-1,2,4-triazol-1-yl)-2-fluorophenoxy)nicotinonitrile] | 0.1 to 1 µM
Cc1cnc(N2CCC(C)(C#N)C2)cc1Oc1ccc(-n2ncn(Cc3c(F)cccc3F)c2=O)cc1Cl (stereo not shown) [Example 397, 1-(4-(2-chloro-4-(4-(2,6-difluorobenzyl)-5-oxo-4,5-dihydro-1H-1,2,4-triazol-1-yl)phenoxy)-5-methylpyridin-2-yl)-3-methylpyrrolidine-3-carbonitrile] | < 0.1 µM
Cc1cnc(N2CC(C)(C#N)C2)cc1Oc1ccc(-n2ncn(Cc3c(F)cccc3F)c2=O)cc1Cl [Example 398, 1-(4-(2-chloro-4-(4-(2,6-difluorobenzyl)-5-oxo-4,5-dihydro-1H-1,2,4-triazol-1-yl)phenoxy)-5-methylpyridin-2-yl)-3-methylazetidine-3-carbonitrile] | < 0.1 µM
CC1(CN)CN(c2cc(Oc3ccc(-n4ncn(Cc5c(F)cccc5F)c4=O)cc3F)c(F)cn2)C1 [Example 399, 2-(4-((2-(3-(aminomethyl)-3-methylazetidin-1-yl)-5-fluoropyridin-4-yl)oxy)-3-fluorophenyl)-4-(2,6-difluorobenzyl)-2,4-dihydro-3H-1,2,4-triazol-3-one] | 0.1 to 1 µM
N#C[C@@H]1CCN(c2cc(Oc3ccc(-n4ncn(Cc5c(F)cccc5F)c4=O)cc3)ccn2)C1 [Example 400, (R)-1-(4-(4-(4-(2,6-difluorobenzyl)-5-oxo-4,5-dihydro-1H-1,2,4-triazol-1-yl)phenoxy)pyridin-2-yl)pyrrolidine-3-carbonitrile] | < 0.1 µM
N#C[C@H]1CCN(c2cc(Oc3ccc(-n4ncn(Cc5c(F)cccc5F)c4=O)cc3)ccn2)C1 [Example 401, (S)-1-(4-(4-(4-(2,6-difluorobenzyl)-5-oxo-4,5-dihydro-1H-1,2,4-triazol-1-yl)phenoxy)pyridin-2-yl)pyrrolidine-3-carbonitrile] | < 0.1 µM
N#Cc1cc(Oc2ccc(-n3ncn(Cc4c(F)cccc4F)c3=O)cc2F)c(F)cn1 [Example 402, 4-(4-(4-(2,6-difluorobenzyl)-5-oxo-4,5-dihydro-1H-1,2,4-triazol-1-yl)-2-fluorophenoxy)-5-fluoropicolinonitrile] | < 0.1 µM
O=c1n(-c2ccc(Oc3ccncc3)cc2)nc(Cl)n1Cc1ccccc1 [Example 403, 4-benzyl-5-chloro-2-(4-(pyridin-4-yloxy)phenyl)-2,4-dihydro-3H-1,2,4-triazol-3-one] | 0.1 to 1 µM
N#Cc1ccccc1Oc1ccc(-n2ncn(Cc3c(F)cccc3F)c2=O)cc1 [Example 404, 2-(4-(4-(2,6-difluorobenzyl)-5-oxo-4,5-dihydro-1H-1,2,4-triazol-1-yl)phenoxy)benzonitrile] | 0.1 to 1 µM
N#Cc1cc(Oc2ccc(-n3ncn(Cc4c(F)cccc4F)c3=O)cc2)ccn1 [Example 405, 4-(4-(4-(2,6-difluorobenzyl)-5-oxo-4,5-dihydro-1H-1,2,4-triazol-1-yl)phenoxy)picolinonitrile] | 0.1 to 1 µM
N#Cc1cc(Oc2ccc(-n3ncn(Cc4c(F)cccc4F)c3=O)cc2F)c(Cl)cn1 [Example 406, 5-chloro-4-(4-(4-(2,6-difluorobenzyl)-5-oxo-4,5-dihydro-1H-1,2,4-triazol-1-yl)-2-fluorophenoxy)picolinonitrile] | < 0.1 µM
CN(CC1CCOCC1)c1cc(Oc2ccc(-n3ncn(Cc4c(F)cccc4F)c3=O)cc2)ccn1 [Example 407, 4-[(2,6-difluorophenyl)methyl]-2-[4-({2-[methyl(oxan-4-ylmethyl)amino]pyridin-4-yl}oxy)phenyl]-1,2,4-triazol-3-one] | 0.1 to 1 µM
CN(CC1CCCCO1)c1cc(Oc2ccc(-n3ncn(Cc4c(F)cccc4F)c3=O)cc2)ccn1 (stereo not shown) [Example 408, 4-(2,6-difluorobenzyl)-2-(4-((2-(methyl((tetrahydro-2H-pyran-2-yl)methyl)amino)pyridin-4-yl)oxy)phenyl)-2,4-dihydro-3H-1,2,4-triazol-3-one] | < 0.1 µM
CCOC1CN(c2nccc(Oc3ccc(-n4ncn(Cc5c(F)cccc5F)c4=O)cc3)c2N)C1 [Example 409, 2-(4-((3-amino-2-(3-ethoxyazetidin-1-yl)pyridin-4-yl)oxy)phenyl)-4-(2,6-difluorobenzyl)-2,4-dihydro-3H-1,2,4-triazol-3-one] | 0.1 to 1 µM
Nc1c(Oc2ccc(-n3ncn(Cc4c(F)cccc4F)c3=O)cc2)ccnc1N1CC2(CCOCC2)C1 [Example 410, 2-(4-((3-amino-2-(7-oxa-2-azaspiro[3.5]nonan-2-yl)pyridin-4-yl)oxy)phenyl)-4-(2,6-difluorobenzyl)-2,4-dihydro-3H-1,2,4-triazol-3-one] | 0.1 to 1 µM
